The results in this text go back to US7585875B2, “Substituted pyrazolo[1,5-a]pyridine compounds and their methods of use” (Avigen, Inc., priority 2006, dated 2009).

Where a name gives a salt, the structure may show the parent alone.

One series has as its system mechanical allodynia after chronic constriction injury (CCI) to the sciatic nerve. Nature of the series: Mechanical allodynia by response to von Frey fibers, rat chronic constriction injury (CCI) model. The settings on record: 10 mg/kg IP, 2 hr post dosing. Type of series: in vivo, male Sprague-Dawley rats. The text has this: Chronic Constriction Injury: Heat and cold allodynia responses as well as mechanical allodynia sensations can be evaluated as described below in rats having a chronic constriction injury (CCI). A unilateral mononeuropathy is produced in rats using the chronic constriction injury model described in Bennett et al., Pain (1988) 33:87-107. CCI is produced in anesthetized rats as follows. The lateral aspect of each rat's hind limb is shaved and scrubbed with Nolvasan. Using aseptic techniques, an incision is made on the lateral aspect of the hind limb at the mid-thigh level. The biceps femoris is bluntly dissected to expose the sciatic nerve. On the right hind limb of each rat, four loosely tied ligatures (for example, Chromic gut 4.0; Ethicon, Johnson and Johnson, Somerville, N.J.) are made around the sciatic nerve approximately 1-2 mm apart. On the left side of each rat, an identical dissection is performed except that the sciatic nerve is not ligated (sham). The muscle is closed with a continuous suture pattern with, e.g., 4-0 Vicryl (Johnson and Johnson, Somerville, N.J.) and the overlying skin is closed with wound clips. The rats are ear-tagged for identification purposes and returned to animal housing.
To induce allodynia, male Sprague-Dawley rats underwent chronic constriction injury (CCI) to the sciatic nerve as described by Bennett and Xie, Pain 1988; 33(1):87-107. The plantar surface of the hind paws was stimulated with von Frey filaments (Stoelting) to induce a withdrawal response by blinded personnel. The bending force of fiber required to induce a 50% withdrawal response was calculated following CCI surgery (pre-dosing baseline). N=5-6 allodynic rats received a single intraperitoneal administration of test compound or vehicle. Two hours post-dosing, 50% paw withdrawal threshold was determined again by blinded testers using von Frey filaments. The change in 50% withdrawal threshold relative to pre-dosing baseline is reported in Table 2 for various substituted pyrazolo[1,5-a]pyridine compounds of the invention.
For the compound `CC(C)c1nn2ccccc2c1C(N)C(C)C` (centres unmarked) [Compound 1051, 1-(2-isopropylpyrazolo[1,5-a]pyridin-3-yl)-2-methylpropan-1-amine hydrochloride], the “Mechanical Allodynia ΔWT (change from pre-dosing 50% withdrawal threshold)” value is 0.29 grams.

Take `CC(N)C(=O)c1c(-c2ccc(F)cc2)nn2ccccc12` (centres unmarked) [Compound 1052, 2-amino-1-(2-(4-fluorophenyl)pyrazolo[1,5-a]pyridin-3-yl)propan-1-one hydrochloride]: the “Mechanical Allodynia ΔWT (change from pre-dosing 50% withdrawal threshold)” value is on record as 10 mg/kg: 0.39 grams.

Consider `COc1nn2ccccc2c1C(=O)C(C)C` [Compound 1055, 1-(2-methoxypyrazolo[1,5-a]pyridin-3-yl)-2-methylpropan-1-one], for which the “Mechanical Allodynia ΔWT (change from pre-dosing 50% withdrawal threshold)” value is given as 10 mg/kg: 2.80 grams.

As for `COc1nn2ccccc2c1C(=O)C(C)N` (centres unmarked) [Compound 1057, 2-amino-1-(2-methoxypyrazolo[1,5-a]pyridin-3-yl)propan-1-one], the “Mechanical Allodynia ΔWT (change from pre-dosing 50% withdrawal threshold)” value is 0.06 grams.

`CCC(N)C(=O)c1c(C(C)C)nn2ccccc12` (centres unmarked) [Compound 1060, 2-amino-1-(2-isopropylpyrazolo[1,5-a]pyridin-3-yl)butan-1-one]: the “Mechanical Allodynia ΔWT (change from pre-dosing 50% withdrawal threshold)” value was 10 mg/kg: 1.87 grams.

`CC(C)CC(N)C(=O)c1c(C(C)C)nn2ccccc12` (centres unmarked) [Compound 1061, 2-amino-1-(2-isopropylpyrazolo[1,5-a]pyridin-3-yl)-4-methylpentan-1-one]: the “Mechanical Allodynia ΔWT (change from pre-dosing 50% withdrawal threshold)” value was 0 grams.

For the compound `CC(=O)OC(C)C(=O)c1c(C(C)C)nn2ccccc12` (centres unmarked) [Compound 1067, 1-(2-isopropylpyrazolo[1,5-a]pyridin-3-yl)-1-oxopropan-2-yl acetate], the “Mechanical Allodynia ΔWT (change from pre-dosing 50% withdrawal threshold)” value is 0.46 grams.

Turning to `CC(O)C(=O)c1c(C(C)C)nn2ccccc12` (centres unmarked) [Compound 1068, 2-hydroxy-1-(2-isopropylpyrazolo[1,5-a]pyridin-3-yl)propan-1-one], the “Mechanical Allodynia ΔWT (change from pre-dosing 50% withdrawal threshold)” value is on record as 0.7 grams.

As to `COC(C)C(=O)c1c(C(C)C)nn2ccccc12` (centres unmarked) [Compound 1069, 1-(2-isopropylpyrazolo[1,5-a]pyridin-3-yl)-2-methoxypropan-1-one], the “Mechanical Allodynia ΔWT (change from pre-dosing 50% withdrawal threshold)” value stood at 0.13 grams.

With `CCC(=O)c1c(-c2ccc(F)cc2)nn2ccccc12` [Compound 1070, 1-(2-(4-fluorophenyl)pyrazolo[1,5-a]pyridin-3-yl)propan-1-one], the “Mechanical Allodynia ΔWT (change from pre-dosing 50% withdrawal threshold)” value came to 0 grams.

Take `CC(C)C(=O)c1c(N(C)C)nn2ccccc12` [Compound 1072, 1-(2-(dimethylamino)pyrazolo[1,5-a]pyridin-3-yl)-2-methylpropan-1-one]: the “Mechanical Allodynia ΔWT (change from pre-dosing 50% withdrawal threshold)” value is 1.48 grams and the “Observation noted beside the allodynia value” was “lethargy”.

Regarding `CC(C)c1nn2ccccc2c1C=O` [Compound 1073, 2-isopropylpyrazolo[1,5-a]pyridine-3-carbaldehyde], the “Mechanical Allodynia ΔWT (change from pre-dosing 50% withdrawal threshold)” value is 0 grams.

With `CC(C)c1nn2ccccc2c1/C=N/NC(N)=O` [Compound 1074, (E)-2-((2-isopropylpyrazolo[1,5-a]pyridin-3-yl)methylene)hydrazinecarboxamide], the “Mechanical Allodynia ΔWT (change from pre-dosing 50% withdrawal threshold)” value turned out to be 3.64 grams and the “Observation noted beside the allodynia value” is “lethargy”.

For `CC(N)C(=O)c1c(N(C)C)nn2ccccc12` (centres unmarked) [Compound 1075, 2-amino-1-(2-(dimethylamino)pyrazolo[1,5-a]pyridin-3-yl)propan-1-one], the “Mechanical Allodynia ΔWT (change from pre-dosing 50% withdrawal threshold)” value is 0.67 grams.

Consider `CCCCC(N)C(=O)c1c(C(C)C)nn2ccccc12` (centres unmarked) [Compound 1077, 2-amino-1-(2-isopropylpyrazolo[1,5-a]pyridin-3-yl)hexan-1-one], for which the “Mechanical Allodynia ΔWT (change from pre-dosing 50% withdrawal threshold)” value is 0.41 grams.

With `CC(=O)c1c(C(C)C)nn2ccccc12` [Compound 1080, 1-(2-isopropylpyrazolo[1,5-a]pyridin-3-yl)ethanone], the “Mechanical Allodynia ΔWT (change from pre-dosing 50% withdrawal threshold)” value was determined as 1.14 grams.

For `CC(=O)SC(C)C(=O)c1c(C(C)C)nn2ccccc12` (centres unmarked) [Compound 1081, S-1-(2-isopropylpyrazolo[1,5-a]pyridin-3-yl)-1-oxopropan-2-yl ethanethioate], the “Mechanical Allodynia ΔWT (change from pre-dosing 50% withdrawal threshold)” value came to 0.07 grams.

Take `COCC(N)C(=O)c1c(C(C)C)nn2ccccc12` (centres unmarked) [Compound 1082, 2-amino-1-(2-isopropylpyrazolo[1,5-a]pyridin-3-yl)-3-methoxypropan-1-one]: the “Mechanical Allodynia ΔWT (change from pre-dosing 50% withdrawal threshold)” value came to 0.5 grams.

For `C/C(=N/O)C(=O)c1c(C(C)C)nn2ccccc12` [Compound 1083, (Z)-2-(hydroxyimino)-1-(2-isopropylpyrazolo[1,5-a]pyridin-3-yl)propan-1-one], the “Mechanical Allodynia ΔWT (change from pre-dosing 50% withdrawal threshold)” value was found to be 0 grams.

On to `CC(C)c1nn2ccccc2c1-c1cccc(N)c1` [Compound 1100, 3-(2-isopropyl-pyrazolo[1,5-a]pyridin-3-yl)-phenylamine], for which the “Mechanical Allodynia ΔWT (change from pre-dosing 50% withdrawal threshold)” value is on record as 0 grams.

For the compound `CC(C)c1nn2ccccc2c1-c1ccc(N)cc1` [Compound 1101, 4-(2-Isopropyl-pyrazolo[1,5-a]pyridin-3-yl)-phenylamine], the “Mechanical Allodynia ΔWT (change from pre-dosing 50% withdrawal threshold)” value is 0.02 grams.

With `CC(C)c1nn2ccccc2c1-c1ccc(N2CCOCC2)cc1` [Compound 1102, 2-Isopropyl-3-(4-morpholin-4-yl-phenyl)-pyrazolo[1,5-a]pyridine], the “Mechanical Allodynia ΔWT (change from pre-dosing 50% withdrawal threshold)” value stood at 0 grams.

For `CC(C)c1nn2ccccc2c1-c1cn[nH]c1` [Compound 1104, 2-isopropyl-3-(1H-pyrazol-4-yl)-pyrazolo[1,5-a]pyridine], the “Mechanical Allodynia ΔWT (change from pre-dosing 50% withdrawal threshold)” value stood at 0.86 grams.

Take `CC(C)c1nn2ccccc2c1-c1cccnc1` [Compound 1111, 2-Isopropyl-3-pyridin-3-yl-pyrazolo[1,5-a]pyridine]: the “Mechanical Allodynia ΔWT (change from pre-dosing 50% withdrawal threshold)” value was found to be 0 grams.

`CC(C)c1nn2ccccc2c1-c1cnn(C)c1` [Compound 1112, 2-Isopropyl-3-(1-methyl-1H-pyrazol-4-yl)-pyrazolo[1,5-a]pyridine]: the “Mechanical Allodynia ΔWT (change from pre-dosing 50% withdrawal threshold)” value came out at 0 grams.

With `CC(C)c1nn2ccccc2c1-c1ccnc(NCCCO)n1` [Compound 1134, 3-[4-(2-Isopropyl-pyrazolo[1,5-a]pyridin-3-yl)-pyrimidin-2-ylamino]-propan-1-ol], the “Mechanical Allodynia ΔWT (change from pre-dosing 50% withdrawal threshold)” value was 0 grams.

As for `CC(C)c1nn2ccccc2c1-c1ccnc(NCCCN2CCN(C)CC2)n1` [Compound 1135, [4-(2-Isopropyl-pyrazolo[1,5-a]pyridin-3-yl)-pyrimidin-2-yl]-[3-(4-methyl-piperazin-1-yl)-propyl]-amine], the “Mechanical Allodynia ΔWT (change from pre-dosing 50% withdrawal threshold)” value is on record as 0 grams.

On to `CC(C)c1nn2ccccc2c1-c1ccnc(N)n1` [Compound 1139, 4-(2-Isopropyl-pyrazolo[1,5-a]pyridin-3-yl)-pyrimidin-2-ylamine], for which the “Mechanical Allodynia ΔWT (change from pre-dosing 50% withdrawal threshold)” value is given as 0.21 grams.

In the case of `CC(C)c1nn2ccccc2c1-c1cc[nH]n1` [Compound 1141, 2-isopropyl-3-(1H-pyrazol-3-yl)-pyrazolo[1,5-a]pyridine], the “Mechanical Allodynia ΔWT (change from pre-dosing 50% withdrawal threshold)” value was found to be 1.04 grams.

With `CC(NCc1ccccc1)C(=O)c1c(C(C)C)nn2ccccc12` (centres unmarked) [compound 1071, 2-(benzylamino)-1-(2-isopropylpyrazolo[1,5-a]pyridin-3-yl)propan-1-one], the “Mechanical Allodynia ΔWT (change from pre-dosing 50% withdrawal threshold)” value came to 0.57 grams.

As for `CC(C)c1nn2ccccc2c1-c1c[nH]c(=S)[nH]1` [compound 1085, 4-(2-isopropylpyrazolo[1,5-a]pyridin-3-yl)-1H-imidazole-2(3H)-thione], the “Mechanical Allodynia ΔWT (change from pre-dosing 50% withdrawal threshold)” value amounted to 1.93 grams.

For the compound `CC(C)c1nn2ccccc2c1-c1ccncc1` [compound 1103, 2-Isopropyl-3-pyridin-4-yl-pyrazolo[1,5-a]pyridine], the “Mechanical Allodynia ΔWT (change from pre-dosing 50% withdrawal threshold)” value amounted to 1.54 grams.

For `CC(C)Nc1nccc(-c2c(C(C)C)nn3ccccc23)n1` [compound 1137, isopropyl-[4-(2-isopropylpyrazolo[1,5-a]pyridin-3-yl)-pyrimidin-2-yl]-amine], the “Mechanical Allodynia ΔWT (change from pre-dosing 50% withdrawal threshold)” value was 3.26 grams.

The series is the same for the next values; noted with them: 20 mg/kg IP, 2 hr post dosing.
For the compound `CC(N)C(=O)c1c(-c2ccc(F)cc2)nn2ccccc12` (centres unmarked) [Compound 1052, 2-amino-1-(2-(4-fluorophenyl)pyrazolo[1,5-a]pyridin-3-yl)propan-1-one hydrochloride], the “Mechanical Allodynia ΔWT (change from pre-dosing 50% withdrawal threshold)” value is reported as 20 mg/kg: 0.31 grams.

Consider `COc1nn2ccccc2c1C(=O)C(C)C` [Compound 1055, 1-(2-methoxypyrazolo[1,5-a]pyridin-3-yl)-2-methylpropan-1-one], for which the “Mechanical Allodynia ΔWT (change from pre-dosing 50% withdrawal threshold)” value was 20 mg/kg: 0 grams.

As to `CCC(N)C(=O)c1c(C(C)C)nn2ccccc12` (centres unmarked) [Compound 1060, 2-amino-1-(2-isopropylpyrazolo[1,5-a]pyridin-3-yl)butan-1-one], the “Mechanical Allodynia ΔWT (change from pre-dosing 50% withdrawal threshold)” value is 20 mg/kg: 0.74 grams.
